Reference: PubChem BioAssay AID330 (DTP/NCI, 2004)
“And” between values parts separate entries of the source, which are not always exact repeats. Equal entries are not always repeated. Inconclusive results and toxic doses are left out. The calls were made as follows: active = survival T/C of 150% or more; inactive = T/C below 125% in these data.

System: P388 leukemia ip, CD2F1 mice, survival T/C
Test: NCI In Vivo Anticancer Drug Screen. Data for tumor model P388 Leukemia (intraperitoneal) in CD2F1 (CDF1) mice
Details: endpoint: median survival time, higher = longer survival
Procedure, shortened: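 Mice carrying the transplanted tumor received test compound or vehicle. Survival was recorded in each group, and the value is the treated-group measurement divided by that of the vehicle-treated control group.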

[1] = dose: 50.0 mg/kg/injection, schedule: Q01DX009 (ip), vehicle: saline with Tween-80
[2] = dose: 100.0 mg/kg/injection, schedule: Q01DX009 (ip), vehicle: saline with Tween-80
[3] = dose: 200.0 mg/kg/injection, schedule: Q01DX009 (ip), vehicle: saline with Tween-80
[4] = dose: 60.0 mg/kg/injection, schedule: Q01DX005 (ip), vehicle: saline with Tween-80
[5] = dose: 120.0 mg/kg/injection, schedule: Q01DX005 (ip), vehicle: saline with Tween-80
[6] = dose: 240.0 mg/kg/injection, schedule: Q01DX005 (ip), vehicle: saline with Tween-80
[7] = dose: 60.0 mg/kg/injection, schedule: Q01DX005 (ip), vehicle: Klucel (hydroxypropylcellulose) (HPC)
[8] = dose: 120.0 mg/kg/injection, schedule: Q01DX005 (ip), vehicle: Klucel (hydroxypropylcellulose) (HPC)
[9] = dose: 6.25 mg/kg/injection, schedule: Q01DX009 (ip), vehicle: Klucel (hydroxypropylcellulose) (HPC)
[10] = dose: 12.5 mg/kg/injection, schedule: Q01DX009 (ip), vehicle: Klucel (hydroxypropylcellulose) (HPC)
[11] = dose: 25.0 mg/kg/injection, schedule: Q01DX009 (ip), vehicle: Klucel (hydroxypropylcellulose) (HPC)
[12] = dose: 100.0 mg/kg/injection, schedule: Q04DX002 (ip), vehicle: saline with Tween-80
[13] = dose: 200.0 mg/kg/injection, schedule: Q04DX002 (ip), vehicle: saline with Tween-80
[14] = dose: 400.0 mg/kg/injection, schedule: Q04DX002 (ip), vehicle: saline with Tween-80
[15] = dose: 50.0 mg/kg/injection, schedule: Q01DX005 (ip), vehicle: saline with Tween-80
[16] = dose: 100.0 mg/kg/injection, schedule: Q01DX005 (ip), vehicle: saline with Tween-80
[17] = dose: 200.0 mg/kg/injection, schedule: Q01DX005 (ip), vehicle: saline with Tween-80
[18] = dose: 240.0 mg/kg/injection, schedule: Q01DX005 (ip), vehicle: Klucel (hydroxypropylcellulose) (HPC)

Measured: T/C

O=C(O)CSC(=S)Nc1ccccn1
inactive: [1] 94 % of control | [2] 90 % of control | [3] 100 % of control

Cc1cn(CCCSCC2OC3OC4C(CO)OC(OC5C(CO)OC(OC6C(CO)OC(OC7C(CO)OC(OC8C(CO)OC(OC9C(CO)OC(OC2C(O)C3O)C(O)C9O)C(O)C8O)C(O)C7O)C(O)C6O)C(O)C5O)C(O)C4O)c(=O)[nH]c1=O (stereo unspecified)
inactive: dose: 50.0 mg/kg/injection, schedule: Q01DX005 (ip), vehicle: saline 103 % of control | dose: 100.0 mg/kg/injection, schedule: Q01DX005 (ip), vehicle: saline 100 % of control | dose: 200.0 mg/kg/injection, schedule: Q01DX005 (ip), vehicle: saline 98 % of control

CCCCS(=O)CCC(N)C(=O)O (stereo unspecified)
inactive: [4] 98 % of control | [5] 94 % of control | [6] 93 % of control

O=C1C=C(O)C2CCCCC2N1 (stereo unspecified)
inactive: dose: 50.0 mg/kg/injection, schedule: Q01DX005 (ip), vehicle: Klucel (hydroxypropylcellulose) (HPC) 99 % of control | dose: 100.0 mg/kg/injection, schedule: Q01DX005 (ip), vehicle: Klucel (hydroxypropylcellulose) (HPC) 95 % of control

N#CC(C(=O)O)C1(c2ccccc2)CCCCC1 (stereo unspecified)
inactive: [1] 101 % of control | [2] 93 % of control | [3] 105 % of control

OC(CC(O)(C(F)(F)F)C(F)(F)F)CC(O)(C(F)(F)F)C(F)(F)F
inactive: dose: 6.25 mg/kg/injection, schedule: Q04DX003 (ip), vehicle: saline with Tween-80 109 % of control | dose: 12.5 mg/kg/injection, schedule: Q04DX003 (ip), vehicle: saline with Tween-80 109 % of control | dose: 25.0 mg/kg/injection, schedule: Q04DX003 (ip), vehicle: saline with Tween-80 95 % of control

CC(=O)N(OC1OC(CO)C(O)C(O)C1O)c1ccc(Oc2ccc(Cl)cc2)cc1 (stereo unspecified)
inactive: [7] 104 % of control | [8] 92 % of control

CCN(CC)C1=NS(=O)(=O)c2ccccc2C(NN)=C1C
inactive: [9] 90 % of control | [10] 90 % of control | [11] 104 % of control | [12] 92 % of control | [13] 99 % of control | [14] 97 % of control

CNC(=O)OCc1nnn(-c2ccccc2)c1COC(=O)NC
inactive: dose: 12.5 mg/kg/injection, schedule: Q01DX005 (ip), vehicle: distilled water + Tween-80 98 % of control | dose: 25.0 mg/kg/injection, schedule: Q01DX005 (ip), vehicle: distilled water + Tween-80 98 % of control | dose: 50.0 mg/kg/injection, schedule: Q01DX005 (ip), vehicle: distilled water + Tween-80 96 % of control | dose: 100.0 mg/kg/injection, schedule: Q01DX005 (ip), vehicle: distilled water + Tween-80 91 % of control | dose: 200.0 mg/kg/injection, schedule: Q01DX005 (ip), vehicle: distilled water + Tween-80 88 % of control

Cn1c(C(O)CCl)nc2c3ccccc3ccc21 (stereo unspecified)
inactive: dose: 25.0 mg/kg/injection, schedule: Q01DX009 (ip), vehicle: saline 109 % of control | dose: 50.0 mg/kg/injection, schedule: Q01DX009 (ip), vehicle: saline 106 % of control | dose: 100.0 mg/kg/injection, schedule: Q01DX009 (ip), vehicle: saline 109 % of control and 92 % of control

O=C(NC(CO)C(=O)OCc1ccccc1)OCc1ccccc1 (stereo unspecified)
inactive: [2] 90 % of control | [3] 90 % of control | dose: 400.0 mg/kg/injection, schedule: Q01DX009 (ip), vehicle: saline with Tween-80 95 % of control

N#Cc1c(-c2ccc(Cl)cc2)c(-c2ccc(Cl)cc2)nn(CCCl)c1=O
inactive: [12] 91 % of control | [13] 100 % of control | [14] 91 % of control

O=[N+]([O-])c1ccc(SC(=S)N(c2ccccc2)c2ccccc2)c([N+](=O)[O-])c1
inactive: [9] 104 % of control | [10] 102 % of control | [11] 102 % of control | dose: 50.0 mg/kg/injection, schedule: Q01DX009 (ip), vehicle: Klucel (hydroxypropylcellulose) (HPC) 102 % of control

Cc1ccc(NC(=O)Oc2ccc(F)cc2Cl)c([N+](=O)[O-])c1
inactive: [1] 112 % of control | [2] 118 % of control

Cc1cccc(C2=Nc3ccccc3N3CC=CC=C23)c1
inactive: [1] 110 % of control | [2] 97 % of control | [3] 92 % of control

O=C(O)C(CBr)CBr
inactive: dose: 25.0 mg/kg/injection, schedule: Q01DX009 (ip), vehicle: water 107 % of control | dose: 50.0 mg/kg/injection, schedule: Q01DX009 (ip), vehicle: water 106 % of control | dose: 100.0 mg/kg/injection, schedule: Q01DX009 (ip), vehicle: water 100 % of control

ClCCN1c2ccc3ccccc3c2Sc2c1ccc1ccccc21
inactive: [15] 96 % of control | [16] 92 % of control | [17] 97 % of control

CCOC(=O)C1CSC(c2c(CO)cnc(C)c2O)N1 (stereo unspecified)
inactive: [7] 100 % of control | [8] 99 % of control | [18] 99 % of control

COc1ccc2c(c1)OCCN(C)OC2c1ccccc1 (stereo unspecified)
inactive: [15] 96 % of control | [16] 95 % of control

COc1ccc2c(c1)c(-c1cc3ccccc3oc1=O)cn2C(=O)c1ccc(Cl)cc1
inactive: [4] 105 % of control | [5] 102 % of control | [6] 106 % of control

Nc1nc(SCC(=O)O)[nH]c(=O)c1NS(=O)(=O)c1ccccc1[N+](=O)[O-]
inactive: [7] 90 % of control | [8] 91 % of control | [18] 96 % of control

Fc1ccc(N2CSC(=S)N(c3ccc(F)cc3F)C2)c(F)c1
inactive: [15] 107 % of control | [16] 104 % of control | [17] 95 % of control

COc1cc(C(=O)C[n+]2ccccc2)ccc1O
inactive: dose: 50.0 mg/kg/injection, schedule: Q04DX003 (ip), vehicle: saline with Tween-80 100 % of control | dose: 100.0 mg/kg/injection, schedule: Q04DX003 (ip), vehicle: saline with Tween-80 100 % of control | dose: 200.0 mg/kg/injection, schedule: Q04DX003 (ip), vehicle: saline with Tween-80 100 % of control

O=S(=O)(F)c1cccc(Cl)c1C[P+](c1ccccc1)(c1ccccc1)c1ccccc1
inactive: dose: 15.0 mg/kg/injection, schedule: Q01DX005 (ip), vehicle: saline with Tween-80 112 % of control

NCCc1ccncc1
inactive: dose: 60.0 mg/kg/injection, schedule: Q01DX005 (ip), vehicle: suspension in saline 98 % of control | dose: 120.0 mg/kg/injection, schedule: Q01DX005 (ip), vehicle: suspension in saline 94 % of control

CN(C)c1ccc(C(=O)C(O)c2ccccc2Cl)cc1 (stereo unspecified)
inactive: dose: 25.0 mg/kg/injection, schedule: Q01DX009 (ip), vehicle: saline with Tween-80 104 % of control | [1] 96 % of control | [2] 96 % of control | [3] 98 % of control

O=S(=O)(ON=C1C=CC(=NOS(=O)(=O)c2ccccc2)C=C1)c1ccccc1
inactive: dose: 25.0 mg/kg/injection, schedule: Q04DX003 (ip), vehicle: Klucel (hydroxypropylcellulose) (HPC) 107 % of control and 94 % of control | dose: 50.0 mg/kg/injection, schedule: Q04DX003 (ip), vehicle: Klucel (hydroxypropylcellulose) (HPC) 103 % of control and 87 % of control and 94 % of control | dose: 100.0 mg/kg/injection, schedule: Q04DX003 (ip), vehicle: Klucel (hydroxypropylcellulose) (HPC) 94 % of control | dose: 200.0 mg/kg/injection, schedule: Q04DX003 (ip), vehicle: Klucel (hydroxypropylcellulose) (HPC) 99 % of control and 100 % of control | dose: 400.0 mg/kg/injection, schedule: Q04DX003 (ip), vehicle: Klucel (hydroxypropylcellulose) (HPC) 116 % of control

CC(=O)/C(=C\c1ccc([N+](=O)[O-])cc1)C(=O)CCN(C)C
inactive: dose: 30.0 mg/kg/injection, schedule: Q01DX005 (ip), vehicle: saline 118 % of control | dose: 60.0 mg/kg/injection, schedule: Q01DX005 (ip), vehicle: saline 121 % of control and 123 % of control

O=C(Nc1nc2cccnc2s1)C(F)(F)F
inactive: [1] 100 % of control | [2] 97 % of control | [3] 94 % of control

CN(C)c1ccc2cc(-n3nnc4cc([N+](=O)[O-])ccc43)c(=O)oc2c1
inactive: dose: 12.5 mg/kg/injection, schedule: Q01DX005 (ip), vehicle: saline with Tween-80 100 % of control | dose: 25.0 mg/kg/injection, schedule: Q01DX005 (ip), vehicle: saline with Tween-80 99 % of control | [15] 90 % of control
